Results as given in US8785418B2, “Lyophilization cakes of proteasome inhibitors” (Cephalon, Inc., priority 2009, dated 2014).

Assays:
[1] = Hydrolysis of Compound 10 in aqueous solution; type: physicochemical
Procedure: Mannitol (39.2 mg) and Kleptose® HP (hydroxypropyl-β-cyclodextrin; 49 mg) are dissolved in sterile water for injection (599 mg) at room temperature. Compound 10 (1.167 mg) is dispersed in tert-butanol (312 mg) by magnetic stirring protected from light at room temperature during 10 minutes. A few mL of the Mannitol/Kleptose® solution is poured into the Compound 10 dispersion in order to solubilize the Compound 10. After forming a solution, the remaining Mannitol/Kleptose® solution is added. The solution is stirred for a few minutes while protected from light. In Formulation 7, the pH is adjusted with phosphoric acid (2M) down to pH 4.0±0.2. In Formulation 8, the pH is about 8 and is not adjusted. The pre-lyophilization solution is filtered through a sterile disposable PVDF filter of 0.22 μm (Stericup Millipore®) to form a clear solution. 4 mL of the filtered pre-lyophilization solution is transferred into a 10 mL bottle and then freeze-dried.
Analysis of the pre-lyophilization solutions for Formulations 7 and 8 were performed at T0 and after 48 hours storage at 25° C. Compound 1 was analyzed because Compound 10 is known to convert to Compound 1 in aqueous solution.

[2] = Stability of Compound 1 drug substance; type: physicochemical
Source text: Piva, R. R., et al., Blood, 1 Mar. 2008, vol 111, No. 5, p 2765-2775. […] Id.
Compound 1 is currently undergoing clinical trials.

angiogenesis = conditions: in vitro; cited from earlier work
[3] = test system: RANKL-induced osteoclastoenesis; conditions: in vitro; cited from earlier work
[4] = test system: normal human epithelial cells, bone marrow progenitors, and bone marrow-derived stromal cells; conditions: cited from earlier work

Hydrolysis in aqueous solution ([1]; aqueous solution, converts to Compound 1)	Compound 10 remaining in obtained lyophilized cake ([1]; lyophilized cake of Formulations 7 and 8 (4 mL fill)) [mg]	Stability in solution ([2]; solution)	Compound	Stability of the compound ([2]; exposure to air and/or light, some batches degrade at temperatures as low as 5° C.)	Anti-angiogenic activity (angiogenesis)	RANKL-induced osteoclastoenesis [3]	Cytotoxicity profile [4]
readily hydrolyzed	< 0.01		6-(2S,3R)-N-[(1R)-1-(1,3,6,2-dioxazaborocan-2-yl)-3-methylbutyl}-3-hydroxy-2-{(6-phenylpyridin-2-yl)formamido]butanamide [Compound 10]				
		unstable in solution	CC(C)C[C@H](NC(=O)[C@@H](NC(=O)c1cccc(-c2ccccc2)n1)[C@@H](C)O)B(O)O [Compound 1, [(1R)-1-[[(2S,3R)-3-Hydroxy-2-[[(6-phenylpyridin-2-yl)carbonyl]amino]-1-oxobutyl]amino]-3-methylbutyl]boronic acid]	unstable and subject to degradation upon exposure to air and/or light	strong anti-angiogenic activity	represses	favorable cytotoxicity profile
